We go through 22 substances from patent US20220249597A1, “MIF INHIBITORS AND METHODS OF USE THEREOF” (The Johns Hopkins University, priority 2016, published 2022).

{Biotin} = biotin label

The target in one data set is T1, MIF (Homo sapiens, UniProt P14174).
T1 sequence (P14174 2-115 limits assumed): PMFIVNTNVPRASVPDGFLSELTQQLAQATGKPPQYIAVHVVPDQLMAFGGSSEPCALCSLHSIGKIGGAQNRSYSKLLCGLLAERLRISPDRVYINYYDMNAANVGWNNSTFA
The experiment in a line: MIF nuclease assay with small DNA substrates. It is filed as biochemical. More on the design: GST (N, cleaved yes); made in house; host or cells: Escherichia coli; key to Endo-Nuclease Activity / Exo-Nuclease Activity: Y:yes; N:no. The settings on record: MIF on the listed DNA substrate. From the text: (§1) Human endoG (NM_004435), cyclophilin A (NM_021130), mouse AIF (NM_012019), human MIF (NM_002415) cDNA and their variants were subcloned into glutathione S-transferase (GST)-tagged pGex-6P-1 vector (GE Healthcare) by EcoRI and XhoI restriction sites and verified by sequencing. The protein was expressed and purified from Escherichia coli by glutathione Sepharose. The GST tag was subsequently proteolytically removed for the nuclease assay. MIF point mutants were constructed by polymerase chain reaction (PCR) and verified by sequencing. The purity of MIF proteins that were used in the nuclease assays was further confirmed by mass spectrometry. MIF proteins purified by FPLC were also used in the nuclease assays and no obvious difference was observed between FPLC MIF and non-FPLC MIF proteins. GST protein was used as a negative control in the nuclease assay.
With “m15: 5′ biotin ssDNA MIF substrate, SEQ ID NO: 91 (DNA CTCAGCCTCCCAAGTAGCAGGGATTACAGG; DNA, 5' {Biotin}, backbone and methylation of C not given here)”, the “Endo-Nuclease Activity” value is given as “Y” and the “Exo-Nuclease Activity” value is recorded as “Y”.

Take “m18: 5′ biotin ssDNA MIF substrate, SEQ ID NO: 94 (DNA CTCAATTTCCCAAGTAGCTGGGATTACAGG; DNA, 5' {Biotin}, backbone and methylation of C not given here)”: the “Endo-Nuclease Activity” value is given as “Y” and the “Exo-Nuclease Activity” value was “Y”.

In the case of “SL: 5′ biotin ssDNA MIF substrate, SEQ ID NO: 6 (DNA CCTGTAATCCCAAGTAGCTGGGATTACAGG; DNA, 5' {Biotin}, backbone and methylation of C not given here)”, the “Endo-Nuclease Activity” value is listed as “N” and the “Exo-Nuclease Activity” value is recorded as “N”.

Turning to “m11: 5′ biotin ssDNA MIF substrate, SEQ ID NO: 88 (DNA CTCAGCCTCCCAAGTAAAAGGGATTACAGG; DNA, 5' {Biotin}, backbone and methylation of C not given here)”, the “Endo-Nuclease Activity” value is reported as “Y” and the “Exo-Nuclease Activity” value is reported as “Y”.

As for “m6: 5′ biotin ssDNA MIF substrate, SEQ ID NO: 83 (DNA CTCAAAAAAACAAGTAGCTGGGATTACAGG; DNA, 5' {Biotin}, backbone and methylation of C not given here)”, the “Endo-Nuclease Activity” value is “Y” and the “Exo-Nuclease Activity” value is given as “Y”.

Turning to “RF: 5′ biotin ssDNA MIF substrate, SEQ ID NO: 8 (DNA TCCCAAGTAGCTGGGATTACAGGAAAAAAA; DNA, 5' {Biotin}, backbone and methylation of C not given here)”, the “Endo-Nuclease Activity” value was “Y” and the “Exo-Nuclease Activity” value is reported as “Y”.

On to “m9: 5′ biotin ssDNA MIF substrate, SEQ ID NO: 86 (DNA CAAGTAGCTGCTCAGCCTCCGGATTACAGG; DNA, 5' {Biotin}, backbone and methylation of C not given here)”, for which the “Endo-Nuclease Activity” value is “Y” and the “Exo-Nuclease Activity” value is “Y”.

Consider “m3: 5′ biotin ssDNA MIF substrate, SEQ ID NO: 80 (DNA CTCAGCCTCCCAAGTAGCTGAAAAAAAAAA; DNA, 5' {Biotin}, backbone and methylation of C not given here)”, for which the “Endo-Nuclease Activity” value is given as “Y” and the “Exo-Nuclease Activity” value is “Y”.

As for “L3: 5′ biotin non-related sequence with stem loop like structure, SEQ ID NO: 13 (DNA ACCTAAATGCTAGAGCTCGCTGATCAGCCT; DNA, 5' {Biotin}, backbone and methylation of C not given here)”, the “Endo-Nuclease Activity” value was “Y” and the “Exo-Nuclease Activity” value is listed as “Y”.

Take “m4: 5′ biotin ssDNA MIF substrate, SEQ ID NO: 81 (DNA CTCAGCCAAAAAAATAGCTGGGATTACAGG; DNA, 5' {Biotin}, backbone and methylation of C not given here)”: the “Endo-Nuclease Activity” value was “Y” and the “Exo-Nuclease Activity” value is on record as “Y”.

Turning to “m7: 5′ biotin ssDNA MIF substrate, SEQ ID NO: 84 (DNA AAAAGCCTCCCAAGTAGCTGGGATTACAGG; DNA, 5' {Biotin}, backbone and methylation of C not given here)”, the “Endo-Nuclease Activity” value was “Y” and the “Exo-Nuclease Activity” value is “Y”.

Turning to “m8: 5′ biotin ssDNA MIF substrate, SEQ ID NO: 85 (DNA CTCAAAATCCCAAAAAAAAGGGATTACAGG; DNA, 5' {Biotin}, backbone and methylation of C not given here)”, the “Endo-Nuclease Activity” value is recorded as “Y” and the “Exo-Nuclease Activity” value is “Y”.

As for “m12: 5′ biotin ssDNA MIF substrate, SEQ ID NO: 89 (DNA CTCAGCCTCCCAAGTAAATGGGATTACAGG; DNA, 5' {Biotin}, backbone and methylation of C not given here)”, the “Endo-Nuclease Activity” value is listed as “Y” and the “Exo-Nuclease Activity” value was “Y”.

As to “BS2: 5′ biotin ssDNA MIF substrate, SEQ ID NO: 96 (DNA TGGGATTACAGGCGTGAGCCACCACGCCC; DNA, 5' {Biotin}, backbone and methylation of C not given here)”, the “Endo-Nuclease Activity” value was “Y” and the “Exo-Nuclease Activity” value was “Y”.

On to “m14: 5′ biotin ssDNA MIF substrate, SEQ ID NO: 90 (DNA CTCAGCCTCCCAAGTAAACGGGATTACAGG; DNA, 5' {Biotin}, backbone and methylation of C not given here)”, for which the “Endo-Nuclease Activity” value is “Y” and the “Exo-Nuclease Activity” value was “Y”.

With “m20: 5′ biotin ssDNA MIF substrate, SEQ ID NO: 95 (DNA AAAAATCTCAGCCTCCCAAGTAGCTGGGAT; DNA, 5' {Biotin}, backbone and methylation of C not given here)”, the “Endo-Nuclease Activity” value is reported as “Y” and the “Exo-Nuclease Activity” value is on record as “Y”.

In the case of “LF: 5′ biotin ssDNA MIF substrate, SEQ ID NO: 7 (DNA AAAAAAACTCAGCCTCCCAAGTAGCTGGGA; DNA, 5' {Biotin}, backbone and methylation of C not given here)”, the “Endo-Nuclease Activity” value is listed as “N” and the “Exo-Nuclease Activity” value is recorded as “N”.

“m10: 5′ biotin ssDNA MIF substrate, SEQ ID NO: 87 (DNA CTCAGCCTCCGGATTACAGGCAAGTAGCTG; DNA, 5' {Biotin}, backbone and methylation of C not given here)”: the “Endo-Nuclease Activity” value is “Y” and the “Exo-Nuclease Activity” value is “Y”.

Consider “m2: 5′ biotin ssDNA MIF substrate, SEQ ID NO: 79 (DNA CTCAGCCTCCAAAAAAAAAAGGATTACAGG; DNA, 5' {Biotin}, backbone and methylation of C not given here)”, for which the “Endo-Nuclease Activity” value is recorded as “Y” and the “Exo-Nuclease Activity” value is given as “Y”.

Turning to “m17: 5′ biotin ssDNA MIF substrate, SEQ ID NO: 93 (DNA CTCAAAATCCCAAGTAGCTGGGATTACAGG; DNA, 5' {Biotin}, backbone and methylation of C not given here)”, the “Endo-Nuclease Activity” value was “Y” and the “Exo-Nuclease Activity” value was “Y”.

As for “m16: 5′ biotin ssDNA MIF substrate, SEQ ID NO: 92 (DNA CTCAGCCTCCCTTGTAGCTGGGATTACAGG; DNA, 5' {Biotin}, backbone and methylation of C not given here)”, the “Endo-Nuclease Activity” value is given as “Y” and the “Exo-Nuclease Activity” value is reported as “Y”.

Turning to “m5: 5′ biotin ssDNA MIF substrate, SEQ ID NO: 82 (DNA CTCAGCCTCCCAAAAAAAAGGGATTACAGG; DNA, 5' {Biotin}, backbone and methylation of C not given here)”, the “Endo-Nuclease Activity” value was “Y” and the “Exo-Nuclease Activity” value is recorded as “Y”.

Staying with this data set, now noted: single or double stranded substrates; ds substrates MIF 1-4 μM.
With “L3: 5′ biotin non-related sequence with stem loop like structure, SEQ ID NO: 13 (DNA ACCTAAATGCTAGAGCTCGCTGATCAGCCT; DNA, 5' {Biotin}, backbone and methylation of C not given here)”, the “MIF cleavage of DNA substrate” value was “cleaved by MIF, but with less efficiency”.

In the next data set the target is T1, MIF. The experiment in a line: Electrophoretic mobility shift assay (EMSA) of MIF with biotin-labeled DNA substrates. More on the design: GST (N, cleaved yes); made in house; host or cells: Escherichia coli. It is filed as binding. The settings on record: 5′ biotin labeled single stranded substrates, 10 mM Mg2+. How it is done:
EMSA assay was performed using LightShift Chemiluminescent EMSA kit (Thermo Scientific) following the manufactures instruction. Briefly, purified MIF protein (2 μM) was incubated with biotin-labeled DNA substrates (10 nM) in the binding buffer containing 10 mM MgCl2 for 30 min on ice. Then samples were separated on 6% retardation polyacrylamide followed by electrophoretic transfer to nylon membrane.
as §1
In general terms: In EMSA bound probe runs differently from free probe, usually more slowly.
With “RF: 5′ biotin ssDNA MIF substrate, SEQ ID NO: 8 (DNA TCCCAAGTAGCTGGGATTACAGGAAAAAAA; DNA, 5' {Biotin}, backbone and methylation of C not given here)”, the “MIF binding to ssDNA substrate (DNA/MIF complex formation)” value is “reduces the DNA-MIF binding”.

As for “L3: 5′ biotin non-related sequence with stem loop like structure, SEQ ID NO: 13 (DNA ACCTAAATGCTAGAGCTCGCTGATCAGCCT; DNA, 5' {Biotin}, backbone and methylation of C not given here)”, the “MIF binding to ssDNA substrate (DNA/MIF complex formation)” value is “weakly binds”.

With “LF: 5′ biotin ssDNA MIF substrate, SEQ ID NO: 7 (DNA AAAAAAACTCAGCCTCCCAAGTAGCTGGGA; DNA, 5' {Biotin}, backbone and methylation of C not given here)”, the “MIF binding to ssDNA substrate (DNA/MIF complex formation)” value is on record as “no obvious effect on the DNA/MIF complex formation”.
